Measurements from patent US20160040240A1, “CACNA1C ALLELE AND TREATMENT OF MOOD DISORDERS” (THE UNIVERSITY OF CHICAGO, priority 2014, published 2016).

Key:
patient with TS Type 2 = assay: Case report: treatment of a patient with Timothy Syndrome type 2 and bipolar disorder; assay type: in vivo, human
Text: The patient is a person with TS Type 2 (see below) diagnosed in childhood. The patient was referred for research evaluation after diagnosis of BD by one of us (FO). This was confirmed by interview with the patient and their parent, using the Diagnostic Interview for Genetic Studies (DIGS), version 3.0.
Ten months after starting the medication, they were referred to a neurologist, who found depression and prescribed citalopram.
They were restarted on their antidepressant and has been stable for the three years of observation since then. We note that this is not a typical course of BD, and that further observation will be needed to fully define their course.

[1] = clinical use; cited from earlier work
[2] = verapamil: particularly in males; cited from earlier work
[3] = test system: neuronal induced pluripotent stem cells (iPSCs) derived from TS patients; conditions: TS patient iPSC-derived neuronal cells; cited from earlier work
[4] = test system: L-type channel of the Cav1.2 protein; conditions: cited from earlier work
[5] = verapamil at 250 mg/d, TS patient

COc1ccc(CCN(C)CCCC(C#N)(c2ccc(OC)c(OC)c2)C(C)C)cc1OC (stereo not drawn) [verapamil]
QT interval (patient with TS Type 2; [5]): no change | episodes of atrial fibrillation (patient with TS Type 2; [5]): continued to have some episodes | number of ventricular fibrillation episodes (patient with TS Type 2; [5]): marked decrease

[Li] [Lithium]
tolerability (patient with TS Type 2; given for mood stabilization, complaints of increased lethargy and irritability): not well tolerated

COC(=O)C1=C(C)NC(C)=C(C(=O)OCCN(C)Cc2ccccc2)C1c1cccc([N+](=O)[O-])c1 (stereo not drawn) [Nicardipine]
common side effects [1]: headache, peripheral edema, dizziness, flushing, asthenia, angina, hypotension, nausea/vomiting, tachycardia, and palpitations | penetration into the brain / crossing of the blood-brain barrier [2]: satisfactorily crosses

CC[C@H](CO)Nc1nc(NCc2ccccc2)c2ncn(C(C)C)c2n1 [roscovitine]
reduction in the proportion of TH-positive neurons [3]: 68% | reversal of excess expression of TH [3]: succeeds in reversing | inactivation of the L-type channel [4]: enhanced (normalized)
